Laboratory results reported in US20260083769A1, “2-Aminopropane-1,3-Diol-Capped Cationic Peptoids for Nucleic Acid Delivery” (NUTCRACKER THERAPEUTICS, INC., priority 2022, published 2026).
Read-outs that look alike come from different tables or passages of the source. Where a SMILES comes first, the peptide text is derived from it. [ ]: non-standard residue; d: D form. Gly(Nα-oleyl) = CCCCCCCC/C=C\CCCCCCCCNCC(=O)O; N(2-ethylhexyl)Gly = CCCCC(CC)CNCC(=O)O; N(CH(CH2OH)2)Gly = O=C(O)CNC(CO)CO; NDecylGly = CCCCCCCCCCNCC(=O)O

Experiments:
[1] = Particle size and polydispersity (PDI) of delivery vehicles by dynamic light scattering; assay type: physicochemical; conditions: Table 5; delivery vehicle comprising the peptoid, Formulation D22, fLuc mRNA
Protocol: The resulting delivery vehicle complexes were evaluated by dynamic light scattering (DLS) to determine the volume average particle size/diameter (nm) and the size polydispersity index (PDI) within the delivery vehicle complex.
Particle size. Particle sizes and size distributions were measured using a Wyatt DynaPro® Plate Reader III. In general, formulated samples were diluted to 2 ng/μL in 100 µL PBS. Data is reported as the hydrodynamic diameter (in nm) of the cumulant fit of the correlation function, and the polydispersity of that measurement.
(§1) In one particular instance, the size and polydispersity (PDI) of delivery vehicles was measured by dynamic light scattering in PBS using a DynaPro® plate reader III. The zeta potential of delivery vehicles was determined using Nano-ZS™ particle analyzer. Zeta sample was diluted to 30 uM total lipid in a weakly buffered solution of 10 mM HEPES, 10 mM MES, 10 mM ammonium acetate pH 7. Measurements were collected in duplicate for over 30 run with the voltage manually set to […]

[2] = Percent encapsulated mRNA, RiboGreen assay; assay type: physicochemical; conditions: Table 5; delivery vehicle comprising the peptoid, Formulation D22, fLuc mRNA
Protocol: Percent encapsulation. The percentage of mRNA encapsulated within the delivery vehicle complexes containing Fluc mRNA was determined using a modified RiboGreen® assay. In general, formulated mRNA samples were diluted to 500 ng/ml in Tris-EDTA buffer with or without Triton-X™. RiboGreen® (Invitrogen) was added at a 200-fold dilution, and the plate was incubated for 5 minutes. Fluorescence was measured at Ex. […]/Em. 520 nm and encapsulated mRNA was calculated by taking the ratio of fluorescence for non-lysed particles versus lysed particles.
The mRNA concentration and the percentage of encapsulated mRNA were determined using a fluorescence-based Quant-iT™ RiboGreen® RNA Reagent Kit using a literature procedure. To determine the mRNA concentration, delivery vehicles were incubated with 2% Triton™ X-100 for 10 min to release entrapped mRNA, followed by addition of RiboGreen® RNA reagent. The fluorescence intensity of mRNA-RiboGreen® reagent complex (excitation at 485 nm and emission at 530 nm) was detected using a microplate reader. The ratio of fluorescence without and with Triton™ X-100 were used to calculate the percentage of encapsulated mRNA.

[3] = Zeta potential of delivery vehicles; assay type: physicochemical; conditions: Table 5; delivery vehicle, pH 7 buffer; in mV (unit assumed)
Protocol: as §1

[4] = Apparent particle pKa, TNS fluorescence assay; assay type: physicochemical; conditions: Table 5; apparent particle pKa of delivery vehicle
Protocol: The apparent particle pKa was assessed by a TNS fluorescence assay. Briefly, particles were diluted to 130 uM total lipid in TNS buffer ranging in pH 3-11 for 10 minutes with […] of TNS probe. The fluorescence was measured at room temperature in a plate reader ex 320/em 445. Fluorescence intensity was normalized to the minimal and maximal values and the pKa was determined by a 3 parameter fit to determine the half maximum of the curve.

[5] = RBC hemolysis as metric for fusogenicity; assay type: cell-based; conditions: sheep red blood cells (RBCs), 5% v/v, Table 5, delivery vehicle, 37° C. 45 min
Protocol: RBC hemolysis was used as a metric for fusogenicity of LNPs at low pH. […] Particles were diluted to […] total lipid in well with 5% RBC solution and incubated at 37° C. for 45 min. Supernatant was collected and absorbance read on a microplate reader at 425 nm. Fusion was normalized to a fully lysed sample with 2% Triton™ and a buffer-only control. % hemolysis=100*[(ABS T-background)−(ABS sample-background)/(ABS T-background)].

[6] = pH 5, read-out: Hemolysis at pH 5
[7] = pH 7, read-out: Hemolysis at pH 7

Row | Compound | PDI [1] | Particle Size (nm) [1] [nm] | % Encapsulation [2] [%] | Zeta Potential [3] | pKa (TNS) [4] | hemolysis at 45 min, 150 mM total lipid [5, 6] [%] | hemolysis at 45 min, 150 mM total lipid [5, 7] [%]
1 | CCCCCCN(CC(N)=O)C(=O)CN(CC(CC)CCCC)C(=O)CN(CCCCCC)C(=O)CN(CC(CC)CCCC)C(=O)CN(CCCCCC)C(=O)CN(CC(CC)CCCC)C(=O)CN(CCCCCC)C(=O)CN(CC(CC)CCCC)C(=O)CNC(CO)CO (stereo not shown) [Compound 13] | 0.102 | 122.4 | 82.0 | −5.17 | 5.686 | 1.8 | 0.6
2 | CCCCCCN(CC(N)=O)C(=O)CN(CCCCCC)C(=O)CN(CCCCCC)C(=O)CN(CCCCCC)C(=O)CN(CCCCCC)C(=O)CN(CCCCCC)C(=O)CN(CCCCCC)C(=O)CN(CCCCCC)C(=O)CNC(CO)CO [Compound 14] | Multimodal | 2228.3 | 57.3 | −3.14 | 6.825 | 9.1 | 0.2
3 | CCCCCCCCCCCCN(CC(=O)N(CCCCCC)CC(=O)N(CCCCCC)CC(=O)N(CC(=O)N(CCCCCCCCCCCC)CC(=O)N(CCCCCC)CC(=O)N(CCCCCC)CC(N)=O)CC(CC)CCCC)C(=O)CN(CC(CC)CCCC)C(=O)CNC(CO)CO (stereo not shown) [Compound 15] | 0.111 | 106.6 | 84.5 | −8 | 5.909 | 0.9 | 0.6

Further lines, with some results ahead:

Row | PDI [1] | Particle Size (nm) [1] [nm] | % Encapsulation [2] [%] | Zeta Potential [3] | pKa (TNS) [4] | Compound | hemolysis at 45 min, 150 mM total lipid [5, 6] [%] | hemolysis at 45 min, 150 mM total lipid [5, 7] [%]
4 | 0.39 | 71.3 | 85.9 | −0.785 | 6.373 | CCCCCCCC/C=C\CCCCCCCCN(CC(=O)N(CCCCCCCCCC)CC(=O)N(CCCCCCCC/C=C\CCCCCCCC)CC(=O)N(CCCCCCCCCC)CC(N)=O)C(=O)CNC(CO)CO [Compound 6] | 21.5 | 60.6
5 | 0.13 | 62.3 | 86.3 | −2.31 | 6.283 | CCCCCCCC/C=C\CCCCCCCCN(CC(N)=O)C(=O)CN(CCCCCCCCCC)C(=O)CN(CCCCCCCC/C=C\CCCCCCCC)C(=O)CNC(CO)CO [Compound 7] (H-[N(CH(CH2OH)2)Gly][Gly(Nα-oleyl)][NDecylGly][Gly(Nα-oleyl)]-NH2) | 6.1 | 23.8
6 | 0.14 | 94.9 | 95.2 | −1.6 | 5.906 | CCCCCCCC/C=C\CCCCCCCCN(CC(=O)N(CCCCCC)CC(=O)N(CCCCCC)CC(=O)N(CCCCCC)CC(=O)N(CCCCCCCC/C=C\CCCCCCCC)CC(=O)N(CCCCCC)CC(=O)N(CCCCCC)CC(=O)N(CCCCCC)CC(N)=O)C(=O)CNC(CO)CO [Compound 9] | 1.1 | 0.1
7 | 0.3 | 122.5 | 97.0 | −2.71 | 6.052 | CCCCCCCCN(CC(N)=O)C(=O)CN(CCCCCC)C(=O)CN(CCCCCC)C(=O)CN(CCCCCC)C(=O)CN(CCCCCC)C(=O)CN(CCCCCC)C(=O)CN(CCCCCC)C(=O)CN(CCCCCCCC)C(=O)CNC(CO)CO [Compound 10] | 1.1 | 0
8 | Multimodal | 2058.2 |  | −6.37 | 4.595 | CCCCCCCCCCN(CC(N)=O)C(=O)CN(CC(CC)CCCC)C(=O)CN(CCCCCCCCCC)C(=O)CN(CCCCCCCCCC)C(=O)CN(CC(CC)CCCC)C(=O)CN(CCCCCCCCCC)C(=O)CNC(CO)CO (stereo not shown) [Compound 43] (H-[N(CH(CH2OH)2)Gly][NDecylGly][N(2-ethylhexyl)Gly][NDecylGly][NDecylGly][N(2-ethylhexyl)Gly][NDecylGly]-NH2) | 1.2 | 0.2
